Assay [1] addresses T1, HiBit-BRG1 fusion protein (Homo sapiens, UniProt P51532).
T1 construct: expressed in transfected cells
Briefly: HiBiT-BRG1 cell-based degradation assay (Nano-Glo HiBiT Lytic Detection). The note with it: stable HeLa cell line expressing HiBit-BRG1 and LgBit, 24 h incubation; for Dmax: top dose 30 μM, read-out: BRG1 HiBit Degradation Maximum (%); for DC50: read-out: BRMG1 HiBit Degradation IC50. The method, boiled down: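 Degradation was scored from HiBiT lytic luminescence, scaled between DMSO-treated wells and wells given 2 μM of a standard BRM/BRG1 degrader. Cells were a stable HeLa HiBiT-BRG1/LgBiT line dosed for 24 h, ten concentrations in 3-fold steps from 30 μM, in duplicate.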

In a further assay the target is T2, HiBit-BRM fusion protein (Homo sapiens, UniProt P51531).
T2 construct: expressed in transfected cells
T2 sequence (P51531 whole entry, the tested form may be a part): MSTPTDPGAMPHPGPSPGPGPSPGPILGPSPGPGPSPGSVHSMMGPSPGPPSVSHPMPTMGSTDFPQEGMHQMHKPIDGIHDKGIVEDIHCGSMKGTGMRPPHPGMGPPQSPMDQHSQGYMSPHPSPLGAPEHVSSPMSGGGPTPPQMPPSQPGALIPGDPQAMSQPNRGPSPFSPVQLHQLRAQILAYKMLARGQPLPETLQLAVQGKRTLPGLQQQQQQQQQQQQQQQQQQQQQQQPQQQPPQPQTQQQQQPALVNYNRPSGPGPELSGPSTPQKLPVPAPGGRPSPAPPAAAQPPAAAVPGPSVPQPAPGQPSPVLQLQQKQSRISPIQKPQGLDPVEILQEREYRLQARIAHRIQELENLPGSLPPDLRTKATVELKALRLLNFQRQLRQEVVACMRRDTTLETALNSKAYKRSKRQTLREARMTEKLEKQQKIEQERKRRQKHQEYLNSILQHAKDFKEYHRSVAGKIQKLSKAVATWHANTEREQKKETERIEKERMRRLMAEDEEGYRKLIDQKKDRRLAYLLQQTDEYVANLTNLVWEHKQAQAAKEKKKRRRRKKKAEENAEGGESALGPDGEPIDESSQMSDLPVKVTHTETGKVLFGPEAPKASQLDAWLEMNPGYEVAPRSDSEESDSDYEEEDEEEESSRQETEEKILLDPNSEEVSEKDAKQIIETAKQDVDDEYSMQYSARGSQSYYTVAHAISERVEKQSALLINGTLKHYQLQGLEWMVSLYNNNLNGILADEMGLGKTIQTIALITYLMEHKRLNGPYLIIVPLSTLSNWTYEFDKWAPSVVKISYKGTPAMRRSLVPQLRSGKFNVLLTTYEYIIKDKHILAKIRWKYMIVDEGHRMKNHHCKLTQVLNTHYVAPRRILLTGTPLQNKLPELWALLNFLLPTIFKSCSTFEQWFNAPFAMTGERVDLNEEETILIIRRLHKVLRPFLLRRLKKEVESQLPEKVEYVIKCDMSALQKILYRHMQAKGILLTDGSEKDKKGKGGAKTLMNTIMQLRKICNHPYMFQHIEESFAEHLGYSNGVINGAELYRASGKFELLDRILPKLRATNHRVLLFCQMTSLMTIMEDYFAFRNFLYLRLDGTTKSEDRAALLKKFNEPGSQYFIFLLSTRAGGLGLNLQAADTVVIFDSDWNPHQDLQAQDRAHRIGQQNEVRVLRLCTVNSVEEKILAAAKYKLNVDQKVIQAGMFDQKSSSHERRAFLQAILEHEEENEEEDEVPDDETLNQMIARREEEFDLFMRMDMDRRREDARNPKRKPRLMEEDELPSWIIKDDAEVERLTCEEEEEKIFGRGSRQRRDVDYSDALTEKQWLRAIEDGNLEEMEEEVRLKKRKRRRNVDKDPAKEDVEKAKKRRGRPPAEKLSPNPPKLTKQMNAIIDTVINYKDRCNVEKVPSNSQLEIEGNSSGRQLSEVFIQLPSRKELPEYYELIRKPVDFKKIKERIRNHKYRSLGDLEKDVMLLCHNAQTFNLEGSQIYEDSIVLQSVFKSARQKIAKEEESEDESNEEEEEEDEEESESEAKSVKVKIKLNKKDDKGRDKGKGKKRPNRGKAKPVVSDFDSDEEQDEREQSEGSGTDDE
Briefly: HiBiT-BRM cell-based degradation assay (Nano-Glo HiBiT Lytic Detection). Particulars: stable HeLa cell line expressing HiBiT-BRM, 24 h incubation; for BRM HiBit Degradation Maximum (%): top dose 30 μM; for DC50: read-out: BRM HiBit Degradation IC50. The method, boiled down:
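Percent BRM loss was derived from HiBiT luminescence relative to DMSO-treated cells and cells given 2 μM of a known BRM/BRG1 degrader. Treatment lasted 24 h in HiBiT-BRM HeLa cells, with a top final concentration of 30 μM.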

Each structure is given as a SMILES string. Some results are limits rather than exact numbers.

T1 sequence (P51532 whole entry, the tested form may be a part): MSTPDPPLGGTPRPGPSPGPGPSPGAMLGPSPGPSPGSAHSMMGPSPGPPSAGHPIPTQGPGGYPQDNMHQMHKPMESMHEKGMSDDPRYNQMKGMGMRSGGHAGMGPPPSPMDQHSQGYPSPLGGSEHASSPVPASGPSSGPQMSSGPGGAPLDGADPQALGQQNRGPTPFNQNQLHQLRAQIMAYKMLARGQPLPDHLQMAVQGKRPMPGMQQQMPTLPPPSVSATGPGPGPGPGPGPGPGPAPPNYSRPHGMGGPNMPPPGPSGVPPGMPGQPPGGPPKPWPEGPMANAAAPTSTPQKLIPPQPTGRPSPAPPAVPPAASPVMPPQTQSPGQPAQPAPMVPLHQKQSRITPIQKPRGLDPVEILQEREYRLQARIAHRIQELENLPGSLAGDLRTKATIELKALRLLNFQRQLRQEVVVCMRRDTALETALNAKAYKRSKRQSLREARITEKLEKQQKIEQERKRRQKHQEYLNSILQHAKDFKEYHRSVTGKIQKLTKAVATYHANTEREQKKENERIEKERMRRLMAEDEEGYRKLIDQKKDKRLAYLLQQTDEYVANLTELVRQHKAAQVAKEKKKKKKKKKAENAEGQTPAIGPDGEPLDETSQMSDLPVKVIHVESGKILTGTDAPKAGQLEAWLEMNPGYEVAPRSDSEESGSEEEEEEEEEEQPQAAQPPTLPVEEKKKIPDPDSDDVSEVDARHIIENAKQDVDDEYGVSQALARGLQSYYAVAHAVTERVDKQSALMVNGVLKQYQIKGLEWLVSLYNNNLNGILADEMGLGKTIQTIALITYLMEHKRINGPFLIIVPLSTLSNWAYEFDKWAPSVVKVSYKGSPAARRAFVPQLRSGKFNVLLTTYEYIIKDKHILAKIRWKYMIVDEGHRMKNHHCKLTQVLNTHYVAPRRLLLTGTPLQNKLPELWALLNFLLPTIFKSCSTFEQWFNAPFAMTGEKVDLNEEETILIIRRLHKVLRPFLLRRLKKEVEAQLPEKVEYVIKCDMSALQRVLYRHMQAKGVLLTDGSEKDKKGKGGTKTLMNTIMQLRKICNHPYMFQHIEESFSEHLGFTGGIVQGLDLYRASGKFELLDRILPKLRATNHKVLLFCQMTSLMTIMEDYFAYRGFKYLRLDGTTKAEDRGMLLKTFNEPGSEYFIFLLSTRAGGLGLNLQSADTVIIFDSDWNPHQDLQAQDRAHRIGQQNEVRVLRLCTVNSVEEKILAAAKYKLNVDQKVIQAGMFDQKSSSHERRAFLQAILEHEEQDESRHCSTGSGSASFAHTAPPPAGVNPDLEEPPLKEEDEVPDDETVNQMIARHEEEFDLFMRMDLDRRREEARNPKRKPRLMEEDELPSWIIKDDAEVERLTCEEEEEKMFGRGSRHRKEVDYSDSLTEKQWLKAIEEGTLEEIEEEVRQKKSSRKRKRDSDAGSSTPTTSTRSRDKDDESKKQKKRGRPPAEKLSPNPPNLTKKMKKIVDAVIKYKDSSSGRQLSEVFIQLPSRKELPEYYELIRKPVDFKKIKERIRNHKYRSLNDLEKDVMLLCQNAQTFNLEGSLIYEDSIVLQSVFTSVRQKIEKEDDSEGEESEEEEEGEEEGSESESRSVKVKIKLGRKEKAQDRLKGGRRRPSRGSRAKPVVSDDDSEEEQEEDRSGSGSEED

Take `Cc1ncsc1-c1ccc(CNC(=O)[C@@H]2C[C@@H](O)CN2C(=O)[C@@H](NC(=O)[C@H]2CC[C@@H](c3cnc(N4CCC(c5sc6nnc(-c7ccccc7O)cc6c5C)CC4)nc3)CC2)C(C)(C)C)cc1` [Compound 86, (2S,4R)-4-hydroxy-1-((S)-2-((1s,4R)-4-(2-(4-(3-(2-hydroxyphenyl)-5-methylthieno[2,3-c]pyridazin-6-yl)piperidin-1-yl)pyrimidin-5-yl)cyclohexane-1-carboxamido)-3,3-dimethylbutanoyl)-N-(4-(4-methylthiazol-5-yl)benzyl)pyrrolidine-2-carboxamide]: in assay [1], the Dmax is under 50% and the DC50 was at least 1000 nM. Also, at HiBit-BRM fusion protein, the “BRM HiBit Degradation Maximum (%)” value is “C (“C” indicates maximum degradation < 50%)” and the DC50 is at least 1000 nM.

As for `Cc1ncsc1-c1ccc([C@H](C)NC(=O)[C@@H]2C[C@@H](O)CN2C(=O)[C@@H](c2cc(N3CCN(C(=O)[C@@H]4CCc5sc6nnc(-c7ccccc7O)cc6c5C4)CC3)no2)C(C)C)cc1` (single isomer, unassigned) [Compound 53], in assay [1], the Dmax is under 50% and the DC50 was at least 1000 nM. Further, at HiBit-BRM fusion protein, the “BRM HiBit Degradation Maximum (%)” value is given as “C (“C” indicates maximum degradation < 50%)” and the DC50 was at least 1000 nM.

Turning to `Cc1ncsc1-c1ccc([C@H](C)NC(=O)[C@@H]2C[C@@H](O)CN2C(=O)[C@@H](c2cc(N3CCC(N4CC(c5sc6nnc(-c7ccccc7O)cc6c5C)C4)CC3)no2)C(C)C)cc1` [Compound 113, (2S,4R)-4-hydroxy-1-((R)-2-(3-(4-(3-(3-(2-hydroxyphenyl)-5-methylthieno[2,3-c]pyridazin-6-yl)azetidin-1-yl)piperidin-1-yl)isoxazol-5-yl)-3-methylbutanoyl)-N-((S)-1-(4-(4-methylthiazol-5-yl)phenyl)ethyl)pyrrolidine-2-carboxamide], in assay [1], the Dmax was under 50% and the DC50 was at least 1000 nM. In addition, on HiBit-BRM fusion protein, the “BRM HiBit Degradation Maximum (%)” value is listed as “A (“A” indicates maximum degradation ≥ 75%)” and the DC50 is under 10 nM.

Turning to `Cc1ncsc1-c1ccc(CNC(=O)[C@@H]2C[C@@H](O)CN2C(=O)[C@@H](NC(=O)CCCCC(=O)N2CCC(c3cc4cc(-c5ccccc5O)nnc4s3)CC2)C(C)(C)C)cc1` [Compound 29], in assay [1], the Dmax was under 50% and the DC50 was at least 1000 nM. Further, on HiBit-BRM fusion protein, the “BRM HiBit Degradation Maximum (%)” value is on record as “C (“C” indicates maximum degradation < 50%)” and the DC50 is at least 1000 nM.

As to `Cc1ncsc1-c1ccc([C@H](C)NC(=O)[C@@H]2C[C@@H](O)CN2C(=O)[C@@H](NC(=O)[C@H]2CC[C@@H](c3sc4nnc(-c5ccccc5O)cc4c3C)CC2)C(C)(C)C)cc1` [Compound 50, (2S,4R)-4-hydroxy-1-((S)-2-((1s,4R)-4-(3-(2-hydroxyphenyl)-5-methylthieno[2,3-c]pyridazin-6-yl)cyclohexane-1-carboxamido)-3,3-dimethylbutanoyl)-N-((S)-1-(4-(4-methylthiazol-5-yl)phenyl)ethyl)pyrrolidine-2-carboxamide], in assay [1], the Dmax was under 50% and the DC50 was at least 1000 nM. At HiBit-BRM fusion protein, the “BRM HiBit Degradation Maximum (%)” value is recorded as “C (“C” indicates maximum degradation < 50%)” and the DC50 was at least 1000 nM.

As for `Cc1ncsc1-c1ccc([C@H](C)NC(=O)[C@@H]2C[C@@H](O)CN2C(=O)[C@@H](c2cc(N(C)CCN3CC(c4cc5nnc(-c6ccccc6O)cc5s4)C3)no2)C(C)C)cc1` [Compound 112, (2S,4R)-4-hydroxy-1-((R)-2-(3-((2-(3-(3-(2-hydroxyphenyl)thieno[3,2-c]pyridazin-6-yl)azetidin-1-yl)ethyl)(methyl)amino)isoxazol-5-yl)-3-methylbutanoyl)-N-((S)-1-(4-(4-methylthiazol-5-yl)phenyl)ethyl)pyrrolidine-2-carboxamide], in assay [1], the Dmax was under 50% and the DC50 is at least 1000 nM. On HiBit-BRM fusion protein, the “BRM HiBit Degradation Maximum (%)” value is listed as “B (“B” indicates maximum degradation ≥ 50%)” and the DC50 is at least 100 nM.

As for `Cc1ncsc1-c1ccc([C@H](C)NC(=O)[C@@H]2C[C@@H](O)CN2C(=O)[C@@H](c2cc(OCCN3CCC(c4sc5nnc(-c6ccccc6O)cc5c4F)CC3)no2)C(C)C)cc1` [Compound 68, (2S,4R)-1-((R)-2-(3-(2-(4-(5-fluoro-3-(2-hydroxyphenyl)thieno[2,3-c]pyridazin-6-yl)piperidin-1-yl)ethoxy)isoxazol-5-yl)-3-methylbutanoyl)-4-hydroxy-N-((S)-1-(4-(4-methylthiazol-5-yl)phenyl)ethyl)pyrrolidine-2-carboxamide], in assay [1], the Dmax was under 50% and the DC50 is at least 1000 nM. Moreover, at HiBit-BRM fusion protein, the “BRM HiBit Degradation Maximum (%)” value is on record as “B (“B” indicates maximum degradation ≥ 50%)” and the DC50 is at least 100 nM.

As for `Cc1ncsc1-c1ccc([C@H](C)NC(=O)[C@@H]2C[C@@H](O)CN2C(=O)[C@@H](c2cc(OCCN3CCC(c4cc5nnc(-c6ccccc6O)cc5s4)CC3)no2)C(C)C)cc1` [Compound 97, (2S,4R)-4-hydroxy-1-((R)-2-(3-(2-(4-(3-(2-hydroxyphenyl)thieno[3,2-c]pyridazin-6-yl)piperidin-1-yl)ethoxy)isoxazol-5-yl)-3-methylbutanoyl)-N-((S)-1-(4-(4-methylthiazol-5-yl)phenyl)ethyl)pyrrolidine-2-carboxamide], in assay [1], the Dmax was under 50% and the DC50 was at least 1000 nM. On HiBit-BRM fusion protein, the “BRM HiBit Degradation Maximum (%)” value is on record as “A (“A” indicates maximum degradation ≥ 75%)” and the DC50 is under 10 nM.

As for `Cc1ncsc1-c1ccc([C@H](C)NC(=O)[C@@H]2C[C@@H](O)CN2C(=O)[C@@H](c2cc(OCCN3C[C@H]4C[C@@H]3C[C@H]4c3sc4nnc(-c5ccccc5O)cc4c3C)no2)C(C)C)cc1` [Compound 60, (2S,4R)-4-hydroxy-1-((R)-2-(3-(2-((1R,4S,5R)-5-(3-(2-hydroxyphenyl)-5-methylthieno[2,3-c]pyridazin-6-yl)-2-azabicyclo[2.2.1]heptan-2-yl)ethoxy)isoxazol-5-yl)-3-methylbutanoyl)-N-((S)-1-(4-(4-methylthiazol-5-yl)phenyl)ethyl)pyrrolidine-2-carboxamide], in assay [1], the Dmax was at least 50% and the DC50 is at least 100 nM. Moreover, at HiBit-BRM fusion protein, the “BRM HiBit Degradation Maximum (%)” value is “A (“A” indicates maximum degradation ≥ 75%)” and the DC50 is at least 10 nM.

As for `Cc1ncsc1-c1ccc([C@H](C)NC(=O)[C@@H]2C[C@@H](O)CN2C(=O)C(c2cc(C3CC(N4CCC(c5sc6nnc(-c7ccccc7O)cc6c5C)CC4)C3)no2)C(C)C)cc1` (single isomer, unassigned) [Compound 34], in assay [1], the Dmax is under 50% and the DC50 is at least 1000 nM. Moreover, at HiBit-BRM fusion protein, the “BRM HiBit Degradation Maximum (%)” value is “A (“A” indicates maximum degradation ≥ 75%)” and the DC50 is at least 10 nM.
